Laboratory results: patent US6225306A, “Biphenyl derivatives and drug composition” (Wakamoto Pharmaceutical Co., Ltd., priority 1997, dated 2001)
Counter-ions that a name gives are not always drawn. Like-named read-outs stand apart in the source and are kept apart here.

What was measured:
Normal Conscious Rat = assay: Aquaretic Effects in Normal Conscious Rat (urine volume); type: in vivo, rat (Sprague-Dawley, male)
Procedure: Aquaretic Effects in Normal Conscious Rat
Studies were performed with Sprague-Dawley male SPF rats (body weight: 240 to 320 g; 8-week-old). In this experiment, each group consisted of not less than 4 animals and rats were fasted over 16 to 20 hours. The animals were acclimatized in metabolic cages for one hour, then each compound to be tested was dissolved in 100% N,N-dimethylformamide or suspended in 5% gum arabic solution and administered to these animals intravenously (iv.) in a dose of 3 mg/kg or orally (p.o.) in a dose of 30 mg/kg. Immediately after the test compound or vehicle were orally administered, saline (25 ml/kg) was given orally. Spontaneous voided urines were collected for 4 hours after the administration of the compound and the amount of the urine were determined. In this case, the control group consisted of animals to which only 5% gum arabic was orally administered.
In addition, known compounds of Comparative Examples 2 and Comparative Examples 3 and 4 represented by the following formulas were used as control compounds.

Vasopressin V1 Receptor = Vasopressin V1 Receptor (Rattus norvegicus, UniProt P30560); assay: biochemical; type: binding, rat (Sprague-Dawley, female; liver crude membrane); conditions: for inhibition at 0.1 µM: 1 h, read-out: Binding Rate of Vasopressin V1 Receptor
Sequence of Vasopressin V1 Receptor (P30560 whole entry): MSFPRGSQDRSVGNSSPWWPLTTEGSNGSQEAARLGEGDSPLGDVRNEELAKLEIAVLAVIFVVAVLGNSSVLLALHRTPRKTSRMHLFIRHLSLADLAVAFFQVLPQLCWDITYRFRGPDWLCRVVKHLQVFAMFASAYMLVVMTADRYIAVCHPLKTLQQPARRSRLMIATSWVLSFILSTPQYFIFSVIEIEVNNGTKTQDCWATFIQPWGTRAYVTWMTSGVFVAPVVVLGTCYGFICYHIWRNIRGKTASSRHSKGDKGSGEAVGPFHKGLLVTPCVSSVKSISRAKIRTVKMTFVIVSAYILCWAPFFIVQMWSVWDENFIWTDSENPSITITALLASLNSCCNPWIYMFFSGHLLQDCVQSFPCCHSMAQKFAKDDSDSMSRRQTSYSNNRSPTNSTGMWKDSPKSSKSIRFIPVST
Procedure: The livers excised from Sprague-Dawley female rats were cut into small pieces, and were homogenized in 50 mM Tris-HCl, pH 7.4 hereunder referred to as "buffer"). The homogenate was centrifuged at 50000×g, at 4° C. for 20 minutes. The pellet was added the buffer in an amount of 10 times the volume of the pellet, the mixture was recentrifuged by the same method as described above to wash the residue. The buffer was further added to the resulting pellet so that the protein content thereof was adjusted to 10 mg/ml to thus give a crude membrane fraction of rat liver. The crude membrane fraction of rat liver was used in the following test. More specifically, 5000 μg of the crude liver membrane was incubated with [^3 H]-Arg-vasopressin V-1 antagonist ([^3 H) vasopressin V1 antagonist: 2 nM) and various concentration (3×10^-12 to 10^-6) of the test compounds in a 1000 μL of buffer containing 10 mM magnesium chloride, 10 mM potassium chloride and 0.1% bovine serum albumin at 25° C. for 60 minutes. Thereafter the incubation mixture was rapidly filtered by vacuum using a cell harvester. The filters were washed with buffer to remove free ligands and excess buffer, and to thus trap labeled ligand linked with the receptor on the filter paper. The filter paper was sufficiently dried and mixed with a liquid scintillator, and the amount of the [^3 H] vasopressin V1 antagonist bonded to the membrane was determined using a liquid scintillation counter. The inhibition rate at each concentration was calculated according to the following equation:
Inhibition Rate (%)=100-[(B-N)/(B0 -N)]×100
Wherein B represents the amount of the [^3 H] vasopressin V1 antagonist bonded to the membrane in the presence of known amounts of the compound to be tested and the [^3 CH] vasopressin V1 antagonist;
B0 represents the amount of the [^3 H] vasopressin V1 antagonist bonded to the membrane in the absence of the compound to be tested;
N represents the amount of the [^3 H] vasopressin V1 antagonist bonded to the membrane in the presence of an excess of vasopressin (10^-6 M).
The IC50 value (the concentration required to cause 50% inhibition of the specific binding of [^3 H]-V1 antagonist) was determined. […] On the other hand, for the compounds which were investigated only one concentration (10^-7 M), the inhibition rate at that concentration was defined to be the binding rate.

Vasopressin V2 Receptor = Vasopressin V2 Receptor (Rattus norvegicus, UniProt Q00788); assay: biochemical; type: binding, rat (Sprague-Dawley, female; kidney crude membrane); conditions: for inhibition at 0.1 µM: 1 h, read-out: Binding Rate of Vasopressin V2 Receptor
Sequence of Vasopressin V2 Receptor (Q00788 whole entry): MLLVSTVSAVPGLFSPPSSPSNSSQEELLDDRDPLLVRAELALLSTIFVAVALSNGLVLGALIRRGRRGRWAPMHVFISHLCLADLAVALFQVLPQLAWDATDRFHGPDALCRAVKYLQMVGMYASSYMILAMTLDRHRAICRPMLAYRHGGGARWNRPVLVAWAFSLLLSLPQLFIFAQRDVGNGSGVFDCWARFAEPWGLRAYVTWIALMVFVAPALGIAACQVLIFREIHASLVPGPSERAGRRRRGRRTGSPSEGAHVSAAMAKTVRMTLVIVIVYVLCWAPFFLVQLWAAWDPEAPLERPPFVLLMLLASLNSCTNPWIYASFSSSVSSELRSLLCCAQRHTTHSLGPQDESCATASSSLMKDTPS

[1] = 10^-7 M, inhibition rate at this concentration

| SMILES | Amount of Urine Volume (Normal Conscious Rat; 3 mg/kg, i.v.) [ml/kg/0-4 hr.] | Amount of Urine Volume (Normal Conscious Rat; 30 mg/kg, p.o.) [ml/kg/0-4 hr.] | inhibition at 0.1 µM (Vasopressin V1 Receptor) [%] | inhibition at 0.1 µM (Vasopressin V2 Receptor) [%] | inhibition at 0.1 µM (Vasopressin V1 Receptor; [1]) [%] | inhibition at 0.1 µM (Vasopressin V2 Receptor; [1]) [%] | IC50 (Vasopressin V1 Receptor; [3H] vasopressin V1 antagonist 2 nM, 25° C., 60 minutes, read-out: Affinity for Vasopressin V1 Receptor, IC50) [nM] | IC50 (Vasopressin V2 Receptor; [3H] vasopressin V2 antagonist 2 nM, 25° C., 60 minutes, read-out: Affinity for Vasopressin V2 Receptor, IC50) [nM] |
| --- | --- | --- | --- | --- | --- | --- | --- | --- |
| O=C(Nc1ccc(C(=O)N2CC[C@H]3CCCN3c3ccccc32)cc1)c1ccccc1-c1ccccc1 [Example 51, (3aR)-6-[4-[(2-Phenylbenzoyl) Amino]Benzoyl]-2,3,3a,4,5,6-Hexahydro-1H-Pyrrolo[1,2-a][1,5]Benzodiazepine] | 63.8 | 21.7 | – | – | – | – | – | – |
| Cl.O=C(Nc1ccc(C(=O)N2C[C@H]3CCCN3Cc3ccccc32)cc1)c1ccccc1-c1ccccc1 [Example 43, (11aR)-10-[4-[(2-Phenylbenzoyl) Amino]Benzoyl]-1,2,3,10,11, 11a-Hexahydro-5H-Pyrrolo[2,1-c][1,4]Benzodiazepine Hydrochloride] | 77.5 | 121.6 | 61.6 | 100 | – | – | – | – |
| CN(C)C1CC2CCN(C(=O)c3ccc(NC(=O)c4ccccc4-c4ccccc4)cc3)c3ccccc3N2C1.Cl [Example 56, (2S, 3aR)-2-(N,N-dimethylamino)-6-[4-[(2-phenylbenzoyl)amino]benzoyl]-2,3,3a,4,5,6-hexahydro-1H-Pyrrolo[1,2-a][1,5]benzodiazepinehydrochloride] | 87.4 | 116.4 | – | – | – | – | – | – |
| O=C(Nc1ccc(C(=O)N2C[C@@H]3CCCN3C(=S)c3ccccc32)cc1)c1ccccc1-c1ccccc1 [Example 37, (11aS)-10-[4-[(2-Phenylbenzoyl) Amino]Benzoyl]-1,2,3,10,11, 11a-Hexahydro-5H-Pyrrolo[2,1-c][1,4]Benzodiazepin-5-Thione] | 40.7 | 21.1 | – | – | 2.8 | 100 | – | – |
| O=C(Nc1ccc(C(=O)N2C[C@@H]3C[C@H](O)CN3c3ccccc32)cc1)c1ccccc1-c1ccccc1 [Example 7, (2S, 3aS)-2-Hydroxy-5-[4-[(2-Phenylbenzoyl) Amino]Benzoyl]-1,2,3,3a,4,5-Hexahydro-Pyrrolo[1,2-a]Quinoxaline] | 29.3 | 33.8 | – | – | – | – | – | – |
| O=C(Nc1ccc(C(=O)N2C[C@H]3C[C@H](F)CN3c3ccccc32)cc1)c1ccccc1-c1ccccc1 [Example 23, (2S, 3aR)-2-Fluoro-5-[4-[(2-Phenylbenzoyl) Amino]Benzoyl]-1,2,3,3a,4,5-Hexahydro-Pyrrolo[1,2-a]Quinoxaline] | 27.2 | 35.6 | – | – | – | – | – | – |
| Cc1ccc(-c2ccccc2C(=O)Nc2ccc(C(=O)N3C[C@H]4CCCN4Cc4ccccc43)cc2)cc1 [Example 44, (11aR)-10-[4-[[2-(4-Tolyl) Benzoyl]Amino]Benzoyl]-1,2,3,10,11, 11-Hexahydro-5H-Pyrrolo[2,1-c][1,4]Benzodiazepine Hydrochloride] | 73.0 | 92.8 | – | – | 48.2 | 96.7 | – | – |
| O=C(Nc1ccc(C(=O)N2C[C@@H]3CCCN3Cc3ccccc32)cc1)c1ccccc1-c1ccccc1 [Example 41, (11aS)-10-[4-[(2-Phenylbenzoyl) Amino]Benzoyl]-1,2,3,10,11, 11a-Hexahydro-5H-Pyrrolo[12,1-c][1,4]Benzodiazepine Hydrochloride] | 29.6 | 73.8 | – | – | 6.6 | 92 | – | – |
| O=C(Nc1ccc(C(=O)N2C[C@@H]3CCCN3c3ccccc32)cc1)c1ccccc1-c1ccccc1 [Example 1, (3aS)-5-[4-[(2-Phenylbenzoyl)Amino]Benzoyl]-1,2,3,3a,4,5-Hexahydro-Pyrrolo[1,2-a]Quinoxaline] | 33.1 | 40.3 | – | – | – | – | – | – |
| Cl.O=C(Nc1ccc(C(=O)N2C[C@H]3C[C@H](O)CN3Cc3ccccc32)cc1)c1ccccc1-c1ccccc1 [Example 47, (2S, 11aR)-2-Hydroxy-10-[4-[(2-Phenylbenzoyl) Amino]Benzoyl]-1,2,3,10,11,11a-Hexahydro-5H-Pyrrolo[2,1-c][1,4]Benzodiazepine Hydrochloride] | 79.5 | 109.6 | 59.8 | 91.9 | – | – | 62 | 0.77 |
| O=C(Nc1ccc(C(=O)N2CC[C@@H]3CCCN3c3ccccc32)cc1)c1ccccc1-c1ccccc1 [Example 49, (3aS)-6-[4-[(2-Phenylbenzoyl) Amino]Benzoyl]-2,3,3a,4,5,6-Hexahydro-1H-Pyrrolo[1,2-a][1,5]Benzodiazepine] | 76.5 | 43.8 | – | – | 88.3 | 92.8 | – | – |
| CC(=O)O[C@H]1C[C@@H]2CN(C(=O)c3ccc(NC(=O)c4ccccc4-c4ccc(C)cc4)cc3)c3ccccc3N2C1 [Example 16, (2S, 3aR)-2-Acetoxy-5-[4-[[2-(4-Tolyl) Benzoyl]Amino]Benzoyl]-1,2,3,3a,4,5-Hexahydro-Pyrrolo[1,2-a]Quinoxaline] | 71.0 | 72.0 | – | – | 68.2 | 100 | – | – |
| O=C(Nc1ccc(C(=O)N2C[C@@H]3C[C@@H](O)CN3c3ccccc32)cc1)c1ccccc1-c1ccccc1 [Example 3] | 29.5 | 54.0 | – | – | – | – | – | – |
| Cc1ccc(-c2ccccc2C(=O)Nc2ccc(C(=O)N3C[C@@H]4CCCN4C(=S)c4ccccc43)cc2)cc1 [Example 38, (11aS)-10-[4-[[2-(4-Tolyl) Benzoyl]Amino]Benzoyl]-1,2,3,10,11, 11a-Hexahydro-5H-Pyrrolo[2,1-c][1,4]Benzodiazepin-5-Thione] | 60.0 | 66.6 | – | – | 4.7 | 100 | – | – |
| CN(C)[C@H]1C[C@H]2CN(C(=O)c3ccc(NC(=O)c4ccccc4-c4ccccc4)cc3)c3ccccc3N2C1.Cl [Example 10, (2S, 3aS)-2-(N,N-Dimethylamino)-5-[4-[(2-Phenylbenzoyl) Amino]Benzoyl]-1,2,3,3a,4,5-Hexahydro-Pyrrolo[1,2-a]Quinoxaline Hydrochloride] | 22.2 | 39.6 | – | – | – | – | – | – |
| Cc1ccc(-c2ccccc2C(=O)Nc2ccc(C(=O)N3C[C@@H]4C[C@H](O)CN4c4ccccc43)cc2)cc1 [Example 8, (2S, 3aS)-2-Hydroxy-5-[4-[[2-(4-Tolyl) Benzoyl]Amino]Benzoyl]-1,2,3,3a,4,5-Hexahydro-Pyrrolo[1,2-a]Quinoxahine] | – | – | – | – | 16.3 | 100 | – | – |
| CC(=O)O[C@H]1C[C@@H]2CN(C(=O)c3ccc(NC(=O)c4ccccc4-c4ccccc4)cc3)c3ccccc3CN2C1 [Example 46, (2S, 11aR)-2-Acetoxy-10-[4-[(2-Phenylbenzoyl) Amino]Benzoyl]-1,2,3,10,11,11a-Hexahydro-5H-Pyrrolo[2,1-c][1,4]Benzodiazepine] | 82.5 | 118.8 | – | – | – | – | – | – |
| Cl.O=C(Nc1ccc(C(=O)N2C[C@H]3C[C@@H](O)CN3Cc3ccccc32)cc1)c1ccccc1-c1ccccc1 [Example 45, (2R,11aR)-2-Hydroxy-10-[4-[(2-Phenylbenzoyl) Amino]Benzoyl]-1,2,3,10,11,11a-Hexahydro-5H-Pyrrolo[2,1-c][1,4]Benzodiazepine Hydrochloride] | 51.4 | 93.9 | – | – | – | – | – | – |
| Cc1ccc(-c2ccccc2C(=O)Nc2ccc(C(=O)N3C[C@H]4C[C@@H](O)CN4c4ccccc43)cc2)cc1 [Example 14, (2R,3aR)-2-Hydroxy-5-[4-[[2-(4-Tolyl) Benzoyl]Amino]Benzoyl]-1,2,3,3a-4,5-Hexahydro-Pyrrolo[1,2-a]Quinoxaline] | 60.6 | 90.3 | – | – | – | – | – | – |
| Cc1ccc(-c2ccccc2C(=O)Nc2ccc(C(=O)N3C[C@H]4CCCN4c4ccccc43)cc2)cc1 [Example 12, (3aR)-5-[4-[[2-(4-Tolyl) Benzoyl]Amino]Benzoyl]-1,2,3,3a,4,5-Hexahydro-Pyrrolo[1,2-a]Quinoxaline] | 66.0 | 12.8 | – | – | – | – | – | – |
| CC(=O)O[C@H]1C[C@@H]2CCN(C(=O)c3ccc(NC(=O)c4ccccc4-c4ccccc4)cc3)c3ccccc3N2C1 [Example 53, (2S, 3aS)-2-Acetoxy-6-[4-[(2-Phenylbenzoyl) Amino]Benzo]-2,3,3a,4,5,6-Hexahydro-1H-Pyrrolo[1,2-a][1,5]Benzodiazepine] | – | – | – | – | 63.8 | 97.9 | – | – |
| Cc1ccccc1C(=O)Nc1ccc(C(=O)N2Cc3cccn3Cc3ccccc32)cc1 [Comp. Ex. 4, reference compound] | 34.8 | 22.6 | – | – | – | – | – | – |
